According to paper PMC10879876, “Activatable prodrug for controlled release of an antimicrobial peptide via the proteases overexpressed in Candida albicans and Porphyromonas gingivalis” (Theranostics, 2024):
Where no end group is shown, it is not given here.

Experiments:
C. albicans [1] = test: Kirby-Bauer disk diffusion, C. albicans; format: cell-based, Candida albicans; conditions: disks treated with 1 mM, five-day incubation at 30 °C
HEK293T [2] = test: XTT viability assay, HEK293T; format: cell-based, human
HEK293T [3] = test: Confocal microscopy of membrane integrity, HEK293T; format: cell-based, human; conditions: 100 µM prodrug, 3 hours at 37 °C, CellBrite Fix Membrane Stain 640
Experimental: (§1) standard curve: ∆PLCy5.5 vs. [fully-digested FRET probe]. Data were then fitted to the following Michaelis-Menten equation: ! = !!"#[…]. […]
(§2) amino acid sequences were provided. PEP-FOLD then employs a physics-based energy function […]
(§3) structures for the given peptide sequence. […]
(§4) dynamics sampling approach. […]
(§5) energy and the agreement with experimental or theoretical constraints. The algorithm selects the […]
(§6) allowed to grow overnight. […]
(§7) peptides for 3 hours at 37 °C. Next, cells were washed three times with sterile PBS. Mammalian […]
(§8) PBS (Thermo Scientific) at room temperature for 20 min. Cells were imaged by a confocal […]
(§9) Transmission Electron Microscopy. […]
(§10) by air drying overnight. Cellular morphology was conducted using the same microscope. Here, […]
(§11) nanomedicine lab (UCSD NanoEngineering). Cells were cultured in complete Dulbecco’s […]
(§12) Streptomycin), at 37 °C and 5% CO2. Passages were conducted with 0.25% Trypsin EDTA before […]
(§13) signal that is proportional to H2O2 concentration. Cells were seeded into 96-well plates (Corning, […]

C. albicans [4] = test system: C. albicans; design: method as in PMID 27458227; conditions: previous work; cited from earlier work
P. gingivalis [5] = test: ROS H2O2 luminescence assay, P. gingivalis; format: cell-based, Porphyromonas gingivalis; conditions: 10 μM, 4 hours, ROS-Glo H2O2 assay, versus cells + PBS
Experimental: (§14) The assay uses an H2O2 substrate that reacts directly with H2O2 to generate a luciferin precursor [55]. It was predicted that exposure of the microorganisms to the prodrug would lead to alterations in their normal physiological processes thus triggering a stress response and inducing the generation of ROS. […] This is consistent with previous studies wherein ROS production is credited as the secondary event of the fungicidal mechanism of P-113 [56]. […]
as §7
(§15) PBS (Thermo Scientific) at room temperature for 20 min. […]
(§16) Cells were cultured in complete Dulbecco’s
as §12, §13
(§17) then incubated for 4 hours at 37 °C before 100µl of ROS-Glo™ Detection Solution was added to each well. Finally, the plate was incubated for 20 minutes at room temperature and the relative luminescence was recorded using a plate reader (Synergy H1, BioTek). […]
(§18) LoB = meanblank + 1.645 (SDblank) […]
(§19) LoD = LoB + 1.645 (SDlow concentration sample).
(§20) Statistical Analysis. Statistical analysis was conducted using GraphPad Prism 10. […]
(§21) A P-value of < 0.05 was […]
(§22) considered significant. […]

SAP9 = molecular target: T1, SAP9 (Candida albicans, UniProt Q59SU1); test: Enzyme digestion by recombinant SAP9 (MALDI-TOF / ESI-MS); format: biochemical; conditions: 37 °C; for Cleavage / degradation by SAP9: 300 nM recombinant SAP9, 3 h, 9.5 mM MES, 2.7 mM KCl, 140 mM NaCl pH 5.5, 455 µM peptide, MALDI-TOF (ESI-MS for P-113)
T1 construct: purchased MyBioSource (San Diego, CA)
Experimental: (§23) Probe activation, kinetics, and cytotoxicity.
(§24) Enzyme digestion. SAP9 and RgpB cleavage were both performed with 455 µM of peptide. […] Then, 10 µL of the enzyme at the appropriate concentration was added. An optimized final concentration of 300 nM for SAP9 and 200 nM for RgpB were used. The solution was incubated at 37 °C for 3 hours for RgpB and SAP9 for optimal cleavage.

P. gingivalis [6] = test: Kirby-Bauer disk diffusion, P. gingivalis; format: cell-based, Porphyromonas gingivalis; conditions: disks treated with 1 mM, five-day incubation at 37 °C
RgpB = molecular target: T2, RgpB (Porphyromonas gingivalis, UniProt P95493); test: Enzyme digestion by recombinant RgpB (MALDI-TOF / ESI-MS); format: biochemical; conditions: 37 °C
T2 construct: gift from Professor Anthony O'Donoghue (UC San Diego)
Experimental: as §23, §24

C. albicans [7] = test: ROS H2O2 luminescence assay, C. albicans; format: cell-based, Candida albicans; conditions: 10 μM, 4 hours, ROS-Glo H2O2 assay, versus cells + PBS
Experimental: as §14, §7, §15, §16, §12, §13, §17, §18, §19, §20, §21, §22

C. albicans [8] = test: XTT viability assay, C. albicans; format: cell-based, Candida albicans; conditions: intact peptide, 10 µM, 3 h at 37 °C, absorbance 490 nm, sextuplet measurements
Experimental: Fungal culture. In situ culturing C. albicans (ATCC 90028) from lyophilized stock (KWIK-STIK, VWR) was conducted on Sabouraud dextrose agar plates (Sigma-Aldrich) 2 to 5 days in advance of the antifungal assay. The plates were then incubated at 30°C and pearl-like colonies were observed, indicative of C. albicans. Single colonies were then extracted with sterilized inoculation loops and inoculated in 3 mL yeast extract peptone dextrose (YEPD) medium (2% Bacto^TMpeptone, 2% Dextrose, 1% Yeast extract in H2O) using Biological Safety Level 2 (BSL-2) practices and procedures. Note, the broth was autoclaved before use and stored at room temperature. […] The culture was finally diluted 1:100 and the OD600 was measured wherein OD600 = 0.5 a.u. correlates to approximately 1 × 10^6 cells/ mL in 100 µL RPMI-1640 medium with L-glutamine and 3-(N-morpholino)propane sulfonic acid (MOPS) without sodium bicarbonate, pH 7.0. […]
Viability assay. The percent toxicity was calculated using an XTT (2,3-bis-(2-methoxy-4-nitro-5-sulfophenyl)-2H-tetrazolium-5-carboxanilide) colorimetric assay (Biotium) wherein viable cells form an orange formazan product upon reduction. […] The absorbance of the formazan dye was measured at a wavelength of 490 nm using a microplate reader. Here, the absorbance is directly proportional to the number of viable cells present in each well. […]

F. nucleatum = test: XTT viability assay, F. nucleatum; format: cell-based, Fusobacterium nucleatum; conditions: intact peptide
P. gingivalis [9] = test: XTT viability assay, P. gingivalis; format: cell-based, Porphyromonas gingivalis; conditions: 10 µM
P. gingivalis [10] = test: TEM of cell morphology, P. gingivalis; format: cell-based, Porphyromonas gingivalis; conditions: 3 hours at 37 °C; G1 at 40 µM
From the text: (§25) Finally, the target microorganisms were also imaged using transmission electron microscopy (TEM) to visualize the cell morphology. Figure 3C presents C. albicans cells. On the left, the untreated cells show a rigid and intact membrane in contrast to the […] (+ S1) showing decreased cell density and clear destruction of the membranes. This obvious change in morphology is seen at other magnifications (Supplementary Figure S19). […]
as §1, §2, §3, §4, §5, §6, §7, §8, §9, §10, §11, §12

C. albicans [11] = test: TEM of cell morphology, C. albicans; format: cell-based, Candida albicans; conditions: 3 hours at 37 °C; S1 at 40 µM
From the text: as §25, §1, §2, §3, §4, §5, §6, §7, §8, §9, §10, §11, §12

T1 sequence (Q59SU1 18-544): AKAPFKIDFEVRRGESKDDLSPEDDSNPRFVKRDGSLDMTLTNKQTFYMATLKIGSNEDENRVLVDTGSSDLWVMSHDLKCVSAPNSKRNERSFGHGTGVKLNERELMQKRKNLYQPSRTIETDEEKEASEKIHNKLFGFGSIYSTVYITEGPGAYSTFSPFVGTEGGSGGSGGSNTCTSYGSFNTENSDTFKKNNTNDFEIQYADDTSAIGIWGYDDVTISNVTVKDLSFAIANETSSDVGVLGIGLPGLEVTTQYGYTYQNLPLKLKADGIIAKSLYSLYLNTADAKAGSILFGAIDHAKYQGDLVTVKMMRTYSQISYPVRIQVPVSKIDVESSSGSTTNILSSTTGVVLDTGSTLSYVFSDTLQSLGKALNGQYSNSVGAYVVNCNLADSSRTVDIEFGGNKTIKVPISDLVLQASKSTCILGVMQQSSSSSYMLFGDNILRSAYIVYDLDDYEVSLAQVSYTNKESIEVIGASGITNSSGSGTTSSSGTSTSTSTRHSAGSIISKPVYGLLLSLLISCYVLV
T2 sequence (P95493 230-736): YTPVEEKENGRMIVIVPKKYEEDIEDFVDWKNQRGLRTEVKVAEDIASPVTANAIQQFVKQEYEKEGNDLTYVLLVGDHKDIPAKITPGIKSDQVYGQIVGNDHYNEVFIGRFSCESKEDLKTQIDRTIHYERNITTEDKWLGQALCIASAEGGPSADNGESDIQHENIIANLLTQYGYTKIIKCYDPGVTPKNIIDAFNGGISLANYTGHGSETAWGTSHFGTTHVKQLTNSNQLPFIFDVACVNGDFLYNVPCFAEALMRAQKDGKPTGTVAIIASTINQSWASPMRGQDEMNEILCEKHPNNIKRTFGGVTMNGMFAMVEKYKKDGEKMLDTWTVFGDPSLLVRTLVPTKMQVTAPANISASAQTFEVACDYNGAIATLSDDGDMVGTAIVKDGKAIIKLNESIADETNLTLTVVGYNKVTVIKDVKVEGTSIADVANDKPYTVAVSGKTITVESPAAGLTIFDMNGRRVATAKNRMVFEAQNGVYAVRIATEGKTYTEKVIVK

Molecule: OC(Cn1cncn1)(Cn1cncn1)c1ccc(F)cc1F [FLZ, fluconazole, reference compound]
- Growth inhibition in disk diffusion test (C. albicans [1]): Obvious growth inhibition

Molecule: AKRHHGYKRKFHGGAGPRIDGGDDDDDD-NH2 [G1]
- Toxicity to HEK293T compared to P-113 (HEK293T [2]; intact prodrug, 10 µM, XTT): decreased toxicity by nearly half
- Membrane integrity by confocal microscopy (HEK293T [3]): membrane remained intact

Molecule: Ac-AKRHHGYKRKFH-NH2 [P-113, reference compound]
- MIC (C. albicans [4]): 10 µM
- H2O2 ROS generation, relative luminescence (P. gingivalis [5]): six-fold increase
- Growth inhibition in disk diffusion test (C. albicans [1]): Obvious growth inhibition
- MIC for HEK293T relative to MIC for the oral microorganisms (HEK293T [2]): ~100 times
- Cleavage / degradation by SAP9 (SAP9): no degradation
- Growth inhibition in disk diffusion test (P. gingivalis [6]): Colony growth is inhibited
- Cleavage / degradation by RgpB (RgpB; 200 nM recombinant RgpB, 3 h, 0.2 M Tris HCl pH 7.6, 5 mM CaCl2, 100 mM NaCl, 40 mM TCEP, 455 µM peptide, MALDI-TOF (ESI-MS for P-113)): no degradation
- H2O2 ROS generation, relative luminescence (C. albicans [7]): six-fold increase

Molecule: Ac-AKRHHGYKRKFHGGVKKKDVVDGGDDDDDD-NH2 [S1]
- H2O2 ROS generation, relative luminescence (P. gingivalis [5]): little luminescence
- Inhibited growth relative to the positive control treatment (FLZ) (C. albicans [1]; disk diffusion, diameter relative to fluconazole): approximately 70%
- Growth inhibition in disk diffusion test (C. albicans [1]): Obvious growth inhibition
- Percent toxicity (C. albicans [8]): 70%
- Percent toxicity (F. nucleatum; 10 µM, 3 h at 37 °C): 15%
- Percent toxicity, highest over the titration (F. nucleatum; all tested concentrations): ≤ 50%
- Cleavage / degradation by SAP9 (SAP9): obvious mass peaks corresponding to the cleaved fragments
- Cleavage by SAP9, S1 and G1 co-incubated (SAP9; joint solution of S1 and G1, SAP9 300 nM, 3 hours, MALDI-TOF): S1 converting to S1 fragment
- Change of percent toxicity upon cleavage (P. gingivalis [9]; S1 pre-cleaved in vitro by 300 nM recombinant SAP9 versus intact (30%)): nearly doubled
- Percent toxicity (P. gingivalis [9]; intact peptide, 3 h at 37 °C, absorbance 490 nm, sextuplet measurements): 30%
- Cell morphology by TEM (P. gingivalis [10]): intact cell structures
- Growth inhibition in disk diffusion test (P. gingivalis [6]): No growth inhibition
- Cell morphology by TEM (C. albicans [11]): decreased cell density and cell rupturing
- Cleavage by RgpB, S1 and G1 co-incubated (RgpB; joint solution of S1 and G1, RgpB 300nM, 3 hours, MALDI-TOF): S1 remaining intact
- H2O2 ROS generation, relative luminescence (C. albicans [7]): six-fold increase
